# Reference: patent US5229410A, “6-substituted-hexahydrobenz[cd]indoles” (Eli Lilly and Company, priority 1991, dated 1993)
# Target: T1, serotonin 1A receptor (Rattus norvegicus, UniProt P19327)
# T1 construct: from tissue; host or cells: cerebral cortex of male Sprague-Dawley rats (synaptosomal membranes)
# T1 sequence (P19327 1-422): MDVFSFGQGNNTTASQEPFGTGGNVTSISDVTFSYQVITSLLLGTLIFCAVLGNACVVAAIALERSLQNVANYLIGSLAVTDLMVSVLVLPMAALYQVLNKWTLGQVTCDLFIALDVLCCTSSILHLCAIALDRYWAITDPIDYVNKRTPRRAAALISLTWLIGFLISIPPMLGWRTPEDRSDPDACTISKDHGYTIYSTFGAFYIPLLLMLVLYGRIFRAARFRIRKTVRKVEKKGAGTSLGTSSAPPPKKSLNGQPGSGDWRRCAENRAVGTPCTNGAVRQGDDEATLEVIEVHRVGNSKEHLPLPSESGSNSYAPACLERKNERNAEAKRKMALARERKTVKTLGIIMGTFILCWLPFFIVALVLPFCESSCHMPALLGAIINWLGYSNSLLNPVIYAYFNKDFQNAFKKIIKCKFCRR
# Assay: serotonin 1A receptor binding (3H-8-OH-DPAT, rat cerebral cortex synaptosomal membranes)
# Parameters: species or system Male Sprague-Dawley rats
# Details: 0.4 nM 3H-8-OH-DPAT, pH 7.4, 37° C., 10 min, read-out: IC50 (concentration necessary to inhibit the binding of 3H-8-OH-DPAT by 50%)
# Method: The compound of Example 14 was evaluated for its ability to interact with serotonin 1A receptor using the following procedure which is generally set forth in Wong et al., J. Neural Transm., 71, 207-218 (1988). Male Sprague-Dawley rats (110-150 g) from Harlan Industries (Cumberland, Ill.) were fed a Purina Chow ad libitum for at least 3 days before being used in the studies. Rats were killed by decapitation. The brains were rapidly removed, and the cerebral cortices were dissected out at 4° C.
# Brain tissues were homogenized in 0.32M sucrose. After centrifugation at 1000×g for 10 min and then at 17,000×g for 20 min, a crude synaptosomal fraction was sedimented. The pellet was suspended in 100 vol of 50 mM Tris-HCl, pH 7.4, incubated at 37° C. for 10 min, and centrifuged at 50,000×g for 10 min. The process was repeated and the final pellet was suspended in ice-chilled 50 mM Tris-HCl, pH 7.4. […]
# Binding of (^3 H-8-OH-DPAT) was performed according to the previously described method [Wong et al., J. Neural Transm. […] Radioactivity was measured with a liquid scintillation spectrometer. […] Specific binding of ^3 H-8-OH-DPAT is defined as the difference of radioactivity bound in the absence and in the presence of 10 μM unlabeled 8-OH-DPAT. […]
compound,measurement,value
"C#Cc1ccc2c3c1C[C@H](N(CCC)CCC)C[C@@H]3CN2 [Example 14, (2aS,4R)-6-ethynyl-4-(di-n-propylamino)-1,2,2a,3,4,5-hexahydrobenz[cd]indole]",IC50,0.5 nM
